From patent US20030186339A1, “Individualization of therapy with antibiotic agents” (McGill University, priority 2001, published 2003)
pIC50: −log10 of the molar value. Like-named read-outs stand apart in the source and are kept apart here. Marks after values point to notes of the source that are not given here.

What was measured:
[1] = test system: 1X-Ab; assay: Competitive antigen ELISA, cross-reactivity of 1X-Ab; format: binding, rabbit; settings: for % Cross-Reaction 1X-Ab: competitive antigen ELISA, 0 = absence of inhibition or inhibition no higher than 40% at highest concentration tested (5×10^−3 M)
Procedure: (§1) Competitive Antigen ELISA
(§2) Buffers and water without additives are filtered through millipore filters and kept for 1 week. BSA, antibodies, Tween™ 20 and horse radish peroxidase conjugates are added to these buffers and water just prior to use. Urine samples are usually collected 4 hours after drinking a cup of coffee (instant or brewed with approximately 100 mg of caffeine per cup) and stored at −80° C. The urine samples are diluted 10 times with sodium phosphate buffer (620 mosm, pH 7.50) and are subsequently diluted with water to give concentrations of AAMU and 1X no higher than 3×10^−6 M in the ELISA. All the pipettings are done with an eight-channel pipette, except those of the antibody and sample solutions. Starting with the last well, 100 μL of a carbonate buffer (100 mM, pH 9.6) containing 2.5 μg mL-1 antibodies are added to each well. After 90 min. at room temperature, the wells are washed three times with […] of TPB: isotonic sodium phosphate buffer (310 mosm, pH 7.50) containing 0.05% Tween™ 20.
(§3) After the initial wash, unoccupied sites are blocked by incubation for 90 min. at room temperature with 100 μL TBP containing 3% BSA. The wells are washed four times with 100 μL TPB. […] The microplate is gently shaken with an orbital shaker at room temperature for 3-4 hours. The wells are washed three times with 100 μL TPB containing 1% BSA and three times with water containing 0.05% Tween™ 20. To the washed plate is added 150 μL of a substrate buffer composed of citric acid (25 mM) and sodium phosphate dibasic buffer (50 mM, pH 5.0) containing 0.06% hydrogen peroxide and 0.04% o-phenylenediamine hydrochloride.
(§4) Buffers and water without additives were filtered through millipore filters and kept for 1 week. BSA, antibodies, Tween™ 20 and horse radish peroxidase conjugates were added to these buffers and water just prior to use. Urine samples were usually collected 4 hours after drinking a cup of coffee (instant or brewed with approximately 100 mg of caffeine per cup) and stored at −80° C. They were diluted 10 times with sodium phosphate buffer (620 mosm, pH 7.50) and were subsequently diluted with water to give concentrations of AAMU and 1X no higher than 3×10^−6 M in the ELISA. All the pipettings were done with an eight-channel pipette, except those of the antibody and sample solutions. Starting with the last well, 100 μL of a carbonate buffer (100 mM, pH 9.6) containing 2.5 μg mL-1 antibodies was pipetted. After 90 min. at room temperature, the wells were washed three times with 100 μL of TPB: isotonic sodium phosphate buffer (310 mosm, pH 7.50) containing 0.05% Tween™ 20.
(§5) After the initial wash, unoccupied sites were blocked by incubation for 90 min. at room temperature with […] TBP containing 3% BSA. The wells were washed four times with 100 μL TPB. […] The microplate was gently shaken with an orbital shaker at room temperature for 3-4 hours. The wells were washed three times with 100 μL with TPB containing 1% BSA and three times with water containing 0.05% Tween™ 20. To the washed plate was added 150 μL of a substrate buffer composed of citric acid (25 mM) and sodium phosphate dibasic buffer (50 mM, pH 5.0) containing 0.06% hydrogen peroxide and 0.04% o-phenylenediamine hydrochloride. After 20 min. at room temperature with shaking, the reaction was stopped with 50 μL of 2.5 N HCl.
(§6) The cross reactivities of AAMU-Ab and 1X-Ab were tested using a wide variety of caffeine metabolites and structural analogs (Table 2 below).

[2] = test system: AAMU-Ab; assay: Competitive antigen ELISA, cross-reactivity of AAMU-Ab; format: binding, rabbit; settings: for % Cross-Reaction AAMU-Ab: competitive antigen ELISA, 0 = absence of inhibition or inhibition no higher than 40% at highest concentration tested (5×10^−3 M)
Procedure: as §1, §2, §3, §4, §5, §6

[3] = cited from earlier work
[4] = healthy volunteers; cited from earlier work
[5] = test system: S. pneumoniae; settings: once a day for 10 days, acute bacterial exacerbation of chronic bronchitis; cited from earlier work
[6] = cited from earlier work; remark: listed apart in the source

Structure (SMILES) | % Cross-Reaction 1X-Ab [1] [%] | % Cross-Reaction AAMU-Ab [2] | other results
O=c1cc[nH]c(=O)[nH]1 [Uracil] | 0 | 0% | –
O=C(N[C@H](CO)[C@H](O)c1ccc([N+](=O)[O-])cc1)C(Cl)Cl [Chloramphenicol] | – | – | CSF concentrations as % of serum levels ([3]; human, in vivo): 30-50%
Nc1nc2nc[nH]c2c(=O)[nH]1 [Guanine] | 0 | 0% | –
Cc1c(F)c(N2CCNC(C)C2)cc2c1c(=O)c(C(=O)O)cn2C1CC1 (stereo not drawn) [Grepafloxacin, grepafloxacin] | – | – | effect on QTc interval [4]: Prolongation of the QTc Intervals has been observed; time to peak plasma drug concentration after dosing ([3]; human, in vivo): 2 to 3 h; time to steady state concentrations ([3]; once-a-day dosing): ≤ 7 days; bioavailability ([3]; oral): approximately 70%; effectiveness against S. pneumoniae, 400 mg per day vs 600 mg per day [5]: may be less effective
CC(=O)Nc1c(N)n(C)c(=O)n(C)c1=O [5-Acetamino-6-amino-1,3-dimethyluracil] | 0 | 0% | –
O=c1[nH]c(=O)c2[nH]cnc2[nH]1 [Xanthine] | 0 | 0^a % | –
C[C@H]1c2cccc(O)c2C(=O)C2=C(O)[C@]3(O)C(=O)C(C(N)=O)=C(O)[C@@H](N(C)C)[C@@H]3[C@@H](O)[C@@H]21 [Doxycycline] | – | – | serum half-life ([3]; human, in vivo): 17 to 20 h
Cn1c(=O)[nH]c2[nH]c(=O)n(C)c2c1=O [1,7-Dimethyluric acid] | 0 | 0% | –
O=c1[nH]cnc2nc[nH]c12 [Hypoxanthine] | 0 | 0% | –
Cn1c(=O)[nH]c2ncn(C)c2c1=O [1,7-Dimethyl Xanthine (Paraxanthine), 1,7-Dimethyl Xanthine] | 0.5 | 0% | –
Cn1c(=O)[nH]c(=O)c2[nH]cnc21 [3-Methyl Xanthine] | 0 | 0% | –
CC1(C)S[C@@H]2[C@H](NC(=O)Cc3ccccc3)C(=O)N2[C@H]1C(=O)O.CC1(C)S[C@@H]2[C@H](NC(=O)Cc3ccccc3)C(=O)N2[C@H]1C(=O)O.c1ccc(CNCCNCc2ccccc2)cc1 [Benzathine penicillin G] | – | – | duration of low sustained serum levels of penicillin G ([3]; human, in vivo): 1-3 weeks
Cn1cnc2[nH]c(=O)[nH]c(=O)c21 [7-Methyl Xanthine] | 0 | 0% | –
CC(=O)Nc1c(N)[nH]c(=O)[nH]c1=O [5-Acetamino-6-amino-uracil] | 0 | 0.6% | –
O=c1[nH]c(=O)c2[nH]c(=O)[nH]c2[nH]1 [Uric acid] | 0 | 0% | –
CC(=O)Nc1c(N)n(C)c(=O)[nH]c1=O [5-Acetamino-6-amino-1-methyluracil] | 0 | 100% | pIC50 ([2]; read-out: concentration required for 50% inhibition in the competitive antigen ELISA, AAMU-Ab, AAMU-HRP conjugate): 5.82
Cn1c(=O)c2c(ncn2C)n(C)c1=O [1,3,7-Trimethyl Xanthine (Caffeine), 1,3,7-Trimethyl Xanthine] | 0 | 0% | –
Cn1c(=O)c2[nH]cnc2n(C)c1=O [1,3-Dimethyl Xanthine (Theophylline), 1,3-Dimethyl Xanthine] | 0.2 | 0% | –
Cn1cnc2c1c(=O)[nH]c(=O)n2C [3,7-Dimethyl Xanthine (Theobromine), 3,7-Dimethyl Xanthine] | 0 | 0% | –
Cn1c(=O)[nH]c2[nH]c(=O)[nH]c2c1=O [1-Methyluric acid] | 11 | 0% | –
Nc1ccc(S(=O)(=O)c2ccc(N)cc2)cc1 [dapsone] | – | – | adverse reactions to dapsone ([6]; fast acetylators): 17%; adverse reactions to dapsone ([6]; slow acetylators): 46%
Cn1c(=O)[nH]c2nc[nH]c2c1=O [1-Methyl Xanthine (1X), 1-Methyl Xanthine] | 100 | 0% | pIC50 ([1]; read-out: concentration required for 50% inhibition in the competitive antigen ELISA, 1X-Ab, 1X-HRP conjugate): 5.00
Cc1nc2[nH]c(=O)[nH]c(=O)c2[nH]1 [8-Methyl Xanthine] | 0 | 0% | –
